Legend:
[1] = target: T1, Serine/threonine-protein kinase TAO3 (Homo sapiens) (UniProt Q9H2K8); test: Selectivity interaction (LanthaScreen Eu Kinase Binding Assay) EUB0001632a TAOK3; conditions: at 10 µM
T1 sequence (whole entry): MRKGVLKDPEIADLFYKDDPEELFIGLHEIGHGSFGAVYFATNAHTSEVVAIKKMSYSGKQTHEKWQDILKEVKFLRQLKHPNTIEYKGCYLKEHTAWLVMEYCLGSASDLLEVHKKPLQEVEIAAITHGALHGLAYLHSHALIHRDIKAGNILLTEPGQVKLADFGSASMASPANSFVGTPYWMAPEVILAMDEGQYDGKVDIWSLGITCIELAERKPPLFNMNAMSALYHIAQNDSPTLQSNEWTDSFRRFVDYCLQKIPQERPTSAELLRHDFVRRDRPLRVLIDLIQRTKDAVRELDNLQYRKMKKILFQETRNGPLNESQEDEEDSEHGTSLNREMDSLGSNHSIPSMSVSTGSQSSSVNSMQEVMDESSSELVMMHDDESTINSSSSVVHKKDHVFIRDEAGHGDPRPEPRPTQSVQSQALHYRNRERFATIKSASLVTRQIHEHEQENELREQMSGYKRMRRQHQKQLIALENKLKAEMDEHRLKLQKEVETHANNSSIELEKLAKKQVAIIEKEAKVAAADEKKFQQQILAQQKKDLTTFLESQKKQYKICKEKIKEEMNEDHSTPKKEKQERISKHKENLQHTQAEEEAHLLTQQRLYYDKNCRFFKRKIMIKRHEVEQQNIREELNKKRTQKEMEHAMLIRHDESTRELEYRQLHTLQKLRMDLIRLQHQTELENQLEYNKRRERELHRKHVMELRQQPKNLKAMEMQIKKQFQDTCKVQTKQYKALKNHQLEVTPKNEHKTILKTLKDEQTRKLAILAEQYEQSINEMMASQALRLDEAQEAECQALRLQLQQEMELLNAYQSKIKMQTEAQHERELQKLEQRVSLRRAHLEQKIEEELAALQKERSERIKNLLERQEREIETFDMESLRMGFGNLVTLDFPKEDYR

[2] = target: T2, Gamma-aminobutyric acid receptor subunit alpha-1 (Homo sapiens) (UniProt P14867); test: Selectivity interaction (Eurofins CEREP Diversity Profile (receptors and ion channels)) EUB0000279b GABRA1; conditions: at 10 µM
T2 sequence (whole entry): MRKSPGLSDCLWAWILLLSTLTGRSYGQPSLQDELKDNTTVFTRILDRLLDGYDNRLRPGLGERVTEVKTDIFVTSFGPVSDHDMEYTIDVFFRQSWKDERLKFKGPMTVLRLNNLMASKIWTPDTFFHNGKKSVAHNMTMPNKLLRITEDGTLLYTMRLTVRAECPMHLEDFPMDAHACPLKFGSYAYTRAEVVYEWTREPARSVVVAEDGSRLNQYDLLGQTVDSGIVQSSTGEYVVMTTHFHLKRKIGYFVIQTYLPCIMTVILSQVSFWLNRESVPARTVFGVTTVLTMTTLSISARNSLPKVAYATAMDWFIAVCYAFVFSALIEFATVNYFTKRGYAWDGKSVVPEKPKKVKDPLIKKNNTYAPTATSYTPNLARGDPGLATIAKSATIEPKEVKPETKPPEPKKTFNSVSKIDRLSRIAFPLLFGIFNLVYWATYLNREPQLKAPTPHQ

[3] = target: Serine/threonine-protein kinase SBK1 (Homo sapiens) (UniProt Q52WX2); test: Selectivity interaction (KinomeScan (DiscoverX)) EUB0000666a SBK1; conditions: at 10 µM
[4] = target: Insulin-like growth factor 1 receptor (Homo sapiens, UniProt P08069); test: Selectivity interaction (Kinase panel (33PanQinase(R) Activity Assay)) EUB0000877a IGF1R
[5] = target: Phosphatidylinositol 4,5-bisphosphate 3-kinase catalytic subunit alpha isoform (Homo sapiens) (UniProt P42336); test: Selectivity interaction (Kinase panel (Eurofins)) EUB0001564a PIK3CA; conditions: at 1 µM
[6] = target: Serine/threonine-protein kinase MARK1 (Homo sapiens) (UniProt Q9P0L2); test: Selectivity interaction (ProQinase) EUB0000171b MARK1
[7] = tested on: Hepatocyte growth factor receptor (Homo sapiens), P08581 [M1250T]; test: (§1) Selectivity interaction (KinomeScan (DiscoverX)) EUB0000229b MET; conditions: at 1 µM
[8] = tested on: Hepatocyte growth factor receptor (Homo sapiens), P08581 [Y1235D]; test: as §1; conditions: at 1 µM
[9] = target: Hepatocyte growth factor receptor (Homo sapiens, UniProt P08581); test: as §1; conditions: at 10 µM
[10] = target: Activated CDC42 kinase 1 (Homo sapiens, UniProt Q07912); test: Selectivity interaction (KinomeScan (DiscoverX)) EUB0000229b TNK2; conditions: at 10 µM
[11] = target: Fibroblast growth factor receptor 4 (Homo sapiens, UniProt P22455); test: Selectivity interaction (KinomeScan (DiscoverX)) EUB0000618a FGFR4; conditions: at 10 µM
[12] = target: Fibroblast growth factor receptor 2 (Homo sapiens) (UniProt P21802); test: Selectivity interaction (KinomeScan (DiscoverX)) EUB0001619a FGFR2; conditions: at 1 µM

Serine/threonine-protein kinase MARK1 (Homo sapiens), sequence (Q9P0L2 whole entry, looked up): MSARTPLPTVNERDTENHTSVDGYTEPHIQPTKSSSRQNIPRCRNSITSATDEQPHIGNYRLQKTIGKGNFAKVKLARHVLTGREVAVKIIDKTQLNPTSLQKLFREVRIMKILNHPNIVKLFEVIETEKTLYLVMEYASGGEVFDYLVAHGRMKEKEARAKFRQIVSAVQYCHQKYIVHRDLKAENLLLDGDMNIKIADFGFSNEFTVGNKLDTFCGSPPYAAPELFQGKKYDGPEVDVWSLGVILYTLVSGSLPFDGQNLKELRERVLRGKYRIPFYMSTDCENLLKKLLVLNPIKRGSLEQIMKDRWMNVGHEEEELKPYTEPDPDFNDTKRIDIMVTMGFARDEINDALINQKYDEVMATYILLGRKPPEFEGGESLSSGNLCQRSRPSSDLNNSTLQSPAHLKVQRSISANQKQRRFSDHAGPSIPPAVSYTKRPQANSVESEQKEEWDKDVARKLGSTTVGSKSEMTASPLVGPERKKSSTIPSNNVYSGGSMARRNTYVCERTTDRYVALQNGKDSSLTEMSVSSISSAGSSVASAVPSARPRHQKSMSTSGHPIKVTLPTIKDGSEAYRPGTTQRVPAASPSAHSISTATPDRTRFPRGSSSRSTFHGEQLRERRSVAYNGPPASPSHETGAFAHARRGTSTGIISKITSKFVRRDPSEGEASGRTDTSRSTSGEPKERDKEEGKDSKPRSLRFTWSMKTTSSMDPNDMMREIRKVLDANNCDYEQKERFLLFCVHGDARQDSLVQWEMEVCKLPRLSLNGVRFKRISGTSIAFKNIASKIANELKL
Hepatocyte growth factor receptor, sequence (P08581 whole entry): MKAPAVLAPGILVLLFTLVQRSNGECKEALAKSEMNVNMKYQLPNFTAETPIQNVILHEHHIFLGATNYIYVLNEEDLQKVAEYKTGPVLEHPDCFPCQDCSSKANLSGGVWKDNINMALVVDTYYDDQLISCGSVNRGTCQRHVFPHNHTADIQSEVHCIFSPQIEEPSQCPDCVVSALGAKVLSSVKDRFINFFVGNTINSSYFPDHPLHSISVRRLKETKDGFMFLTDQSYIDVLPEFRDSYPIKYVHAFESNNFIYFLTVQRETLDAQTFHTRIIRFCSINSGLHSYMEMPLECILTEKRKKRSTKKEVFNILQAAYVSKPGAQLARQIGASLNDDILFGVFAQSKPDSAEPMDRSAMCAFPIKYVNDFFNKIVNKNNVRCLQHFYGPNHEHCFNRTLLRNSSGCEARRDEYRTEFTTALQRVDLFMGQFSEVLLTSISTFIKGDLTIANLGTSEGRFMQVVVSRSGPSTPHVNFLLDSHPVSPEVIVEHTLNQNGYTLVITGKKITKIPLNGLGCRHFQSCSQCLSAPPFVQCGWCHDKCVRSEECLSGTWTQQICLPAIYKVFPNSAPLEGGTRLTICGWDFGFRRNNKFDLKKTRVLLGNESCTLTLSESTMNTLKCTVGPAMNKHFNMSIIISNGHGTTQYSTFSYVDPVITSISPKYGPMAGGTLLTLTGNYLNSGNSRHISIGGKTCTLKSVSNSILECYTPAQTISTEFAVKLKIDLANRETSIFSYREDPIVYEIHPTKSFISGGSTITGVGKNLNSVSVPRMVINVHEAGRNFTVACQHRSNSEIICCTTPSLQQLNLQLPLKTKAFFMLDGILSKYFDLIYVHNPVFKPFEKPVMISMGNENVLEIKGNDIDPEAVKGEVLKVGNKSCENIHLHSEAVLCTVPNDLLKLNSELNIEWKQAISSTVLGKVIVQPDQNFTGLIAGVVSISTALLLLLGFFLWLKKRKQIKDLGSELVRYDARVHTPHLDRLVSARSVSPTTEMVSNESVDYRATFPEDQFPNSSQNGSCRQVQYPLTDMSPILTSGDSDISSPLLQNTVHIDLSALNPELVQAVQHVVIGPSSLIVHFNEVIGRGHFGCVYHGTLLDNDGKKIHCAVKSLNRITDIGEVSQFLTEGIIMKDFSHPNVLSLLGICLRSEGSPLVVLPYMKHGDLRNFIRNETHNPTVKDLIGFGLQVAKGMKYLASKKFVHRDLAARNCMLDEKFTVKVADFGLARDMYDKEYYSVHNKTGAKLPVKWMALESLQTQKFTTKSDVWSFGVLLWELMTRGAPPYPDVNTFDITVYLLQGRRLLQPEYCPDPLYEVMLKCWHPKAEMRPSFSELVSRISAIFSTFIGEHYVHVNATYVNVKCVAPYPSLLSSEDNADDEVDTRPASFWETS
Hepatocyte growth factor receptor (Homo sapiens), P08581 [M1250T], sequence (P08581 whole entry M1250T): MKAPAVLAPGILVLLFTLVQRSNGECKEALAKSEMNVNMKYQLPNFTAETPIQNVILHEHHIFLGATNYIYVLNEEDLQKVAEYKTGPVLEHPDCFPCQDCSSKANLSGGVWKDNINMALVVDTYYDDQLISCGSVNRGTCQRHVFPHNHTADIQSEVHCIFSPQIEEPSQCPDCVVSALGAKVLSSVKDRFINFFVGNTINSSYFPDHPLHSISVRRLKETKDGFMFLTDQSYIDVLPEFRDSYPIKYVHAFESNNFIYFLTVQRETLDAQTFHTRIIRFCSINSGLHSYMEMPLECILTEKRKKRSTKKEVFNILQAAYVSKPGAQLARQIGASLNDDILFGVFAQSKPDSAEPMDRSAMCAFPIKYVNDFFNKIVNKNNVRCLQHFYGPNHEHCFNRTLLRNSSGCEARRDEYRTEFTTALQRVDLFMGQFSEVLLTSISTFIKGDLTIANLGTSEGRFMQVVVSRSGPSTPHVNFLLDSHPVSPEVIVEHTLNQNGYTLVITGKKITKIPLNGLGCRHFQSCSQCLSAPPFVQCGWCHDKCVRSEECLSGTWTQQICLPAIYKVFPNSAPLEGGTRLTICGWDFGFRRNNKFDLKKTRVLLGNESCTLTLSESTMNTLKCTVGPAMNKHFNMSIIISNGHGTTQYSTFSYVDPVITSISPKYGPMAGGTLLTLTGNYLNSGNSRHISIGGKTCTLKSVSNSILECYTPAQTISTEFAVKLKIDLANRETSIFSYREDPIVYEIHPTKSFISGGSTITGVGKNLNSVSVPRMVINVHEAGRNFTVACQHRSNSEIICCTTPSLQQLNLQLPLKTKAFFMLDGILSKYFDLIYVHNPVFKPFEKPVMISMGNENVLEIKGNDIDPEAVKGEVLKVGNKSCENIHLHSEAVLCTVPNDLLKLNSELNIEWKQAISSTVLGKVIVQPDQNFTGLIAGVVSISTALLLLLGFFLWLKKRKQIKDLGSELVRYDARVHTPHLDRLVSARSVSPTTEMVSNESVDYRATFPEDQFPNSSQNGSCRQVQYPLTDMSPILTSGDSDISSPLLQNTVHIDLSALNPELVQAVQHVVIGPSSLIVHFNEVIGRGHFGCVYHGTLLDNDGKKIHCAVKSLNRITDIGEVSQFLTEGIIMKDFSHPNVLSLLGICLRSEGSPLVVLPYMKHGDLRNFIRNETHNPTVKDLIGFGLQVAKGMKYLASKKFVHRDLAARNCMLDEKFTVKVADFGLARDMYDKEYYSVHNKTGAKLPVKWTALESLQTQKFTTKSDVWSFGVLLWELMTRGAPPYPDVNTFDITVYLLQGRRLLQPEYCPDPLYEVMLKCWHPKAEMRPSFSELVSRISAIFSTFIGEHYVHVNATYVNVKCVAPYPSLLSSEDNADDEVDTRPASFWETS
Insulin-like growth factor 1 receptor, sequence (P08069 31-736 limits assumed): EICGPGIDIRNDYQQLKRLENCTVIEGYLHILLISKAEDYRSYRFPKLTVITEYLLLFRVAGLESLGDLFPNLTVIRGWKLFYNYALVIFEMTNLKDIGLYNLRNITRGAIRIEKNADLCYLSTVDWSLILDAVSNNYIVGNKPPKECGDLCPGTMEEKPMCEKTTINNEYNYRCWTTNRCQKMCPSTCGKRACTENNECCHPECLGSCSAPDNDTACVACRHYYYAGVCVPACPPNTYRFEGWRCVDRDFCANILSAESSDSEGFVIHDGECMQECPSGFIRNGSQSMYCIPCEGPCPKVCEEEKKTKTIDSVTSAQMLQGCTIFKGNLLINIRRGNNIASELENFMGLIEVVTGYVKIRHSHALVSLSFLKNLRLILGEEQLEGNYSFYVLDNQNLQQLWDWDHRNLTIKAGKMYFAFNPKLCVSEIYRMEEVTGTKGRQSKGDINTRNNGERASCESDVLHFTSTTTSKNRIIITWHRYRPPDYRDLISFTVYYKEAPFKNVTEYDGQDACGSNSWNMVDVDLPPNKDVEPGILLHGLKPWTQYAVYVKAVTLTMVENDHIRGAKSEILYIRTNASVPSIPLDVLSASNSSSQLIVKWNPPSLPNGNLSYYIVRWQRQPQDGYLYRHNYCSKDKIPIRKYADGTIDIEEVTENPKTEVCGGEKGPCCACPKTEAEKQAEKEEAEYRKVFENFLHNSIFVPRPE
Insulin-like growth factor 1 receptor, sequence (P08069 741-1367 limits assumed): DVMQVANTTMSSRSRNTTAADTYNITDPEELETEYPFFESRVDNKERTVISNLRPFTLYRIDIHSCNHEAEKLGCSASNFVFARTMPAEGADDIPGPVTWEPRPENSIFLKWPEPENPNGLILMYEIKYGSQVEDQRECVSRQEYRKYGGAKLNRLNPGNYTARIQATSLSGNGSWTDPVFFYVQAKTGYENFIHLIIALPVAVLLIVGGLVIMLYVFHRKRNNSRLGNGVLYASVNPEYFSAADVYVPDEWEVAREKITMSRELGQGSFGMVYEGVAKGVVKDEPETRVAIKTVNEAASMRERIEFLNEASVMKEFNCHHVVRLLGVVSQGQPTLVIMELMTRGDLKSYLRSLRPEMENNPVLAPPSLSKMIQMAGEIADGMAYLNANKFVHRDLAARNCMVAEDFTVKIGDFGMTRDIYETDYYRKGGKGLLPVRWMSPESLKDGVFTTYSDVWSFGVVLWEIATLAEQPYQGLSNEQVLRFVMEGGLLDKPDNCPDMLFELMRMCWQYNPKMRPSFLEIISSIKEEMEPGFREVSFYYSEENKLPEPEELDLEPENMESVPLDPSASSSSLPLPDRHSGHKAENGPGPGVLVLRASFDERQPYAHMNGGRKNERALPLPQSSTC

Which % of inhibition [1] does the source give for `Cn1cc(-n2cnc3c(NCc4nc5cc(Cl)c(Cl)cc5[nH]4)nc(N4CCOCC4)nc32)cn1` here?
Its % of inhibition is 7.54%.

With `CC(=O)c1cc(-c2ccccc2OCC2CC2)c2ncccn12` as the compound, how does the % of control [2] read?
The % of control was 112%.

How did the % of control [3] turn out when `O=C(NOC[C@H](O)CO)c1ccc(F)c(F)c1Nc1ccc(I)cc1F` was run?
Its % of control is 100%.

With `CCC(=O)N1CC[C@H](Nc2ncnc3c2CN(c2cnc(OC)c(C(F)(F)F)c2)CC3)C1` [LENIOLISIB] as the compound, how does the IC50 [4] read?
Its IC50 is greater than 10 µM.

For `CC[C@@H](Nc1c(C#N)c(-c2ccc(-c3cccc(C)c3F)cc2)nc2cnccc12)C(=O)O` [BAY-091], which % of inhibition [5] is on record?
The % of inhibition was 30.9%.

Which results are given for `C=CC(=O)Nc1cccc(C(=O)Nc2ccc(Nc3cc(-c4[nH]c(SC)nc4C)ccn3)cc2)c1`?
% of control ([6]; at 1 µM): 100%; % of control ([6]; at 5 µM): 88%

How did the % binding [7] turn out when `COc1cc(N(C)c2ccnc3ccc(C(F)(F)F)cc23)cc(OC)c1OC` was run?
Its % binding is 96%.

And the % binding [8]?
Its % binding is 82%.

What about the % binding [9] of the same compound?
The % binding was 100%.

What about the % binding [10] of the same compound?
The % binding was 89%.

For `O[C@H]1CC[C@H](Nc2ncc3nc(Nc4c(F)cc(F)cc4F)n([C@H]4CCOC4)c3n2)CC1`, which % of control [11] is on record?
Its % of control is 74%.

How did the % of control [12] turn out when `N#Cc1cccc(-c2c[nH]c3ncnc(N4CCOCC4)c23)c1` was run?
The % of control was 100%.

From ChEMBL document CHEMBL5465560, “Selectivity Literature for EUbOPEN Chemogenomic Library” (2024)
